Data reported in patent US9017936B2, “Assays for agents affecting megakaryocyte development” (Shire Human Genetic Therapies, Inc., priority 2009, dated 2015).
pEC50: −log10 of the molar value.

Experiments:
[1] = system: megakaryocytic cells from primary hematopoietic progenitor cells; assay: Megakaryocyte growth in expanded CD34+ cells transduced with shControl or shTRB3; assay type: cell-based, human; details: for MK cell number: cultured one week with anagrelide; for Inhibition of megakaryocyte growth: vs DMSO
Description: UT7/mpl cells (clone 5.1) (Goncalves et al., Leukemia 12:1355-1366 (1998)) or human umbilical cord blood CD34+ hematopoietic cells were infected with pLKO.1-puro lentiviral vectors carrying short hairpin (sh) RNA sequences against human TRB-3 (designated shTRB3.1 to shTRB3.5) or a non-targeting scramble shRNA (designated shControl). shRNA clones were purchased from Sigma.
Expanded CD34+ cells (see Materials and Methods Section of Example 1) were infected as described above and then were sub-cultured under standard megakaryocyte culture conditions with anagrelide or an equivalent amount of vehicle for 2 days prior to addition of 1 μg/ml puromycin and further differentiation for 5 days.
CD61 expression of live cells was analysed by flow cytometry following double staining with 7-amino actinomycin D and the FITC-conjugated monoclonal antibody Y2/51 (Dako cytomation) or an isotype-matched control antibody; the latter was used to set a boundary between positive and negative cells.
Table 1 illustrates the effect of TRB-3 silencing on the ability of anagrelide-to inhibit megakaryocyte growth in cultures of primary hematopoietic progenitor cells. Expanded CD34+ cells were infected overnight with shControl or with a mixture of shTRB3.4 and shTRB3.5. Cells were then cultured for one week in the presence of anagrelide or an equivalent amount of vehicle under standard megakaryocyte culture conditions, except that 1 ug/ml puromycin was added after 2 days. The number of megakaryocytic cells was determined by cell counting of viable cells and flow cytometry.

TRB-3 mRNA expression = assay: TRB-3 expression assay (quantitative RT-PCR) in megakaryocyte cultures of expanded CD34+ cells; assay type: cell-based, human
Protocol: CD34+ cells were thawed, washed by centrifugation (300 g for 10 min at room temperature) in Stemspan™ medium (Stem Cell Technologies, London, UK) and then seeded in 48-well Falcon plates at a density of 1.5×10^5 cells/ml in the above culture medium supplemented with 100 U/ml penincillin, 0.1 mg/ml streptomycin, 0.25 μg/ml amphothericin B, 2% human umbilical cord blood plasma, 40 ng/ml TPO (Insight, UK), 50 ng/ml SCF, 100 ng/ml Flt3 ligand, and 10 ng/ml IL-3 (all from R&D Systems, Abingdon, UK). Cells were grown four days at 37° C. in a humidified incubator under 5% CO2/95% air.
The expanded cells were washed free of cytokines by centrifugation as above and re-suspended to 1.5×10^5 cells/ml by addition of fresh Stemspan™ culture medium containing 2% human umbilical cord plasma and 40 ng/ml TPO. Cells were then grown in 48-well Falcon plates at 37° C. in a humidified incubator under 5% CO2/95% air in the presence of either anagrelide, another test agent or an equivalent amount of vehicle (between 0.01% to 0.05% DMSO). At various time points the cells were harvested and processed for RNA extraction or for determination of CD61 antigen expression and total cell counting.
Cellular RNA was extracted with RNeasy reagent (Qiagen) according to the manufacturer's instructions and cDNA was prepared from 0.1-0.5 μg total RNA template using random hexamer primers and a High Capacity Reverse Transcription kit or a High Capacity RNA-to-cDNA Master Mix (Applied Biosystems). cDNA aliquots were either used immediately or stored at −20° C. for PCR analysis at a later stage. cDNA aliquots (equivalent to 5-10 ng of input RNA) were then analysed in duplicates by real-time PCR using gene-specific TaqMan probes on an ABI Prism 7500 Sequence Detection System (Applied Biosystems). Probes for TRB-3 (Hs00221754_m1), GpIIb (Hs00166246_m1), GUSB (Hs99999908_m1) and TBP (Hs99999910_m1) were commercially available from the Assay on Demand gene expression collection (Applied Biosystems). Thermal conditions were the following: 20 seconds at 95° C. followed by 40 cycles of 3 seconds at 94° C. and 30 seconds at 60° C. Reactions without cDNA were included as controls. Relative mRNA expression levels were calculated using the comparative cycle threshold (CT) method (Livak and Schmittgen, 2001) using the CT values obtained for β-glucuronidase (GUSB) or TATA Box binding protein (TBP) as internal references. For each target gene to be quantified, validation experiments were performed to determine that the efficiency of amplification of target and reference gene was approximately equal. When analysing dose responses EC50 values were calculated with Prism software (Version 4, GraphPad Software Inc, CA, USA).
In order to ascertain the sensitivity of the described method, dose-response curves were constructed based on the effect of anagrelide on TRB-3 mRNA expression using different numbers of cells. Cells were cultured for 4 days under standard MK culture conditions in the presence of increasing concentrations of anagrelide. RNA was extracted from the cells, and TRB-3 mRNA expression was determined by quantitative RT-PCR using β-glucuronidase as an endogenous reference. Results shown in FIG. 3 were expressed relative to the TRB-3 mRNA level detected in cells treated with vehicle alone. EC50 values were calculated using a sigmoidal dose response (variable slope) curve-fit model. Values in brackets represent the 95% CI. Error bars (SD) smaller than the size of the symbol are not shown.
Expanded CD34+ cells (see Materials and Methods Section of Example 1) were pre-incubated for various lengths of time under standard megakaryocyte culture conditions in the absence of the test agent and then treated with the test agent or an equivalent amount of vehicle for 24 hours prior to harvesting. TRB-3 mRNA expression was determined as described in the Materials and Methods Section of Example 1.

[2] = system: phosphodiesterase type III; details: cited from earlier work
[3] = shTRB3 (shTRB3.4 + shTRB3.5)-transduced cells

pEC50 (TRB-3 mRNA expression; Homo sapiens, 96 h, 4 days, standard MK culture, RNA extracted from 200,000 cells, 95% CI 9 to 27 nM, read-out: EC50 for increase in TRB-3 mRNA expression) | Compound | MK cell number ([1]; shControl-transduced cells) | Inhibition of megakaryocyte growth ([1]; shControl-transduced cells) | MK cell number [1, 3] | Inhibition of megakaryocyte growth [1, 3] | TRB-3 mRNA response to 24 h exposure (TRB-3 mRNA expression; 1 μM, 24 h exposure following the refractory phase (after initial 2-3 days)) | TRB-3 mRNA response to 24 h exposure (TRB-3 mRNA expression; 1 μM, exposure confined to the initial 2-3 days of culture) | TRB-3 expression, 24 h treatment after three days of culture vs continuous four day exposure (TRB-3 mRNA expression; 1 μM, last 24 h vs continuous) | extent of TRB-3 expression response (fold increase vs vehicle) (TRB-3 mRNA expression; 4 days, RNA extracted from 25,000 cells) | extent of TRB-3 expression response (fold increase vs vehicle) (TRB-3 mRNA expression; 4 days, RNA extracted from 200,000 cells) | inhibition of phosphodiesterase type III [2] | effect on TRB-3 expression (TRB-3 mRNA expression)
7.82 | O=C1CN2Cc3c(ccc(Cl)c3Cl)N=C2N1 [Anagrelide, 6,7-dichloro-1,5-dihydroimidazo (2,1-b)quinazolin-2(3H)-one] | 106 ×10^3 | 49.3% | 202 ×10^3 | 21.5% | sharp increase in TRB-3 expression | relatively weak | higher level of TRB-3 expression than if the drug was present for the entire four day period of culture | 1.8 fold | 3 fold | potent inhibitor | –
– | TPO: thrombopoietin, the primary signal for megakaryocyte production | – | – | – | – | – | – | – | – | – | – | reduces TRB-3 expression
